Data: US12491229B2, “Stabilized peptide composition” (Shionogi & Co., Ltd., priority 2014, dated 2025)
Each block holds one sequence with its values, some of them ahead of it. Ends that are not written are not given here.

Assays:
Type in all cases: physicochemical
[1] = Solubility study 1 of each peptide against solution pH; settings: pH 2-12, peptide mixed at 3 mg/mL in water for injection adjusted with hydrochloride or sodium hydroxide solution; FIG. 1
Procedure: Solubility of the peptides described as SEQ ID NOs: 1-5 was evaluated with the condition of pH 2-12. Hydrochloride solution or sodium hydroxide solution was added to water for injection to adjust pH, and each peptide was mixed with the adjusted solution, where the peptide concentration was set to 3 mg/mL. The mixed solution was filtered, the filtered solution was diluted with 10-20 parts of water for injection, and peak area of each peptide was obtained by liquid chromatography (same test procedure described above). From peak area of each peptide, dilution ratio of the filtered solution, peak area and concentration of each standard solution described above, peptide concentration was obtained.

[2] = Solution stability of each peptide against pH; settings: for stability in the solution state: conclusion from studies on stability in solution with different pH
Procedure: Content and related substances were measured in accordance with the method of liquid chromatography described in general test section in Japan Pharmacopeia. To prepare the test sample, water for injection was added to the lyophilized sample, and each peptide concentration was adjusted to 0.12 mg/mL. Peak area of each peptide in the sample and the one in each standard of the drug substance were obtained, and content was calculated from dilution ratio and ratio of peak area in the sample to one in each standard described below. Residual of the content in the stability test was against the content at the time when the lyophilized sample was prepared. Related substances were calculated by ratio of peak area of the target related substance to all related substances and drug substances in each sample solution. The level of increase of the related substances was evaluated by the difference from the related substance at the moment when the lyophilized sample was prepared.
Standard solution for measuring content of the peptide described as SEQ ID NO: 1 or SEQ ID NO: 2 was prepared in each by dissolving the peptide described above into 1.6 mg/mL phosphate solution and by adjusting each peptide concentration into 0.15 mg/mL. Standard solution for measuring content of the peptide described as SEQ ID NO: 3, SEQ ID NO: 4 or SEQ ID NO: 5 was prepared in each by dissolving the peptide described above into 12.1 mg/mL of 2-amnino-2-hydroxymethyl-1,3-propanediol aqueous solution and by adjusting each peptide concentration to 0.15 mg/mL. For the stationary phase of the liquid chromatography, column with octadecyl group was used, and the measurement was performed by gradient elution method. Flow rate in the measurement was set to 1.0 mL/min.
Stability of the peptide described as SEQ ID NOs: 1-5 was evaluated in each.
The sample solution prepared with the compositions above was stored for 6 hours at 25° C. Then, the level of increase of related substances derived from the peptides described as SEQ ID NO: 1, SEQ ID NO: 2 or SEQ ID NO: 3 was measured in each, and residual of the peptides described as SEQ ID NO: 4 or SEQ ID NO: 5 was measured in each. The analytical procedure for the related substances and peptide contents was described above.

[3] = Solubility study 2 of each peptide against pH (white turbidity on decreasing pH); parameters: key: ∘: dissolution; x: white turbidity; settings: peptide 1.5 mg/g, pH decreased gradually with hydrochloride solution
Procedure: As shown in the study 1 described above, when the peptide was mixed directly with water for injection, the bulk was formed, and it was difficult to dissolve the bulk. So, solubility of peptides was evaluated thermodynamically by dissolving the peptide completely once with high pH, and decreasing the solution pH gradually to check pH when white turbidity was observed.
The peptide described as SEQ ID NO: 1 or SEQ ID NO: 2 was dissolved into the solution with pH10 and solubility was examined by decreasing the solution pH in each. 15 mg of the peptide described as SEQ ID NO: 1 or SEQ ID NO: 2 was mixed with water, 0.1 mol/L sodium hydroxide solution was added for dissolution, and pH was adjusted to 10. Peptide concentration was adjusted to 1.5 mg/g. In each sample solution, hydrochloride solution was added to decrease pH gradually, and the appearance of the solution was checked.

Sequence: EYYELFVNI [SEQ ID NO: 1, EYYELFVNI]
Solubility of each peptide against pH [1]: decreased with decreasing pH of the solution | stability in the solution state [2]: good stability | Solution state ([3]; pH 5.4): x | Solution state ([3]; pH 5.6): ∘ | Solution state ([3]; pH 6): ∘ | Solution state ([3]; pH 6.6): ∘ | Solution state ([3]; pH 7.9): ∘ | Solution state ([3]; pH 10): ∘

Sequence: KTVNELQNL (listed as Homo sapiens) [SEQ ID NO: 5, peptide derived from KOC1 protein]
stability in the solution state [2]: poor stability | residual of the peptide ([2]; five-peptide solution (Table 2) pH 8-11 stored for 6 hours at 25° C., FIGS. 2-4, 2-5): prominently decreased and solution stability decreased with increasing solution pH

Sequence: RYCNLEGPPI (listed as Homo sapiens) [SEQ ID NO: 3, peptide derived from URLC10 protein]
stability in the solution state [2]: poor stability | level of increase of related substances derived from the peptide ([2]; five-peptide solution (Table 2) pH 8-11 stored for 6 hours at 25° C., FIGS. 2-1 to 2-3): increased and solution stability decreased, when solution pH was 10.0-11.0

Continued, in another order:

stability in the solution state [2]: poor stability | Solution state ([3]; pH 5): x | Solution state ([3]; pH 5.5): ∘ | Solution state ([3]; pH 7): ∘ | Solution state ([3]; pH 8): ∘ | Solution state ([3]; pH 9): ∘ | Solution state ([3]; pH 10): ∘
Sequence: IYNEYIYDL [SEQ ID NO: 2, IYNEYIYDL]
Solubility of each peptide against pH [1]: decreased with decreasing pH of the solution

Solubility of each peptide against pH [1]: low when solution pH was around neutral | stability in the solution state [2]: good stability
Sequence: VYGIRLEHF [SEQ ID NO: 4, VYGIRLEHF]
